Measurements: ChEMBL document CHEMBL1921737, “Utilizing G-quadruplex formation to target 8-oxoguanine in telomeric sequences” (Bioorg Med Chem Lett, 2011)
Calls of active or inactive are those of the source. The calls are words filed in the database; no cut-off is given here.

Legend:
Assay type in all cases: nucleic-acid assay
Nucleic Acid [1] = assay: Binding affinity to telomeric G-quadruplex DNA 5'-d(AGGGTTAGGGTTAGGGTTAGGG) by UV titration method
Nucleic Acid [2] = assay: Binding affinity to telomeric G-quadruplex DNA 5'-d(AGGGTTAGGGTTAGGGTTAGGG) assessed as increase in melting temperature at 2 uM by UV thermal denaturation analysis
Nucleic Acid [3] = assay: Binding affinity to telomeric G-quadruplex DNA 5'-d(AGGGTTAGGGTTAGGGTTAGGG) at 1 to 10 uM by CD titration method in presence of 100 mM of KCl
Nucleic Acid [4] = assay: Binding affinity to telomeric G-quadruplex DNA 5'-d(GOxodGTTAGGGTTAGGGTTAGGGTTAGGG) at 1 to 10 uM by CD titration method in presence of 100 mM of KCl
Nucleic Acid [5] = assay: Binding affinity to telomeric G-quadruplex DNA 5'-d(AOxodGGTTAGGGTTAGGGTTAGGGTGTT) at 1 to 10 uM by CD titration method in presence of 100 mM of KCl
Nucleic Acid [6] = assay: Binding affinity to telomeric G-quadruplex DNA 5'-d(AGGGTTAGOxodGGTTAGGGTTAGGGTGTT) at 1 to 10 uM by CD titration method in presence of 100 mM of KCl
Nucleic Acid [7] = assay: Binding affinity to telomeric G-quadruplex DNA 5'[32P]-d(AGGGTTAGGGTTAOxodGGGGTTAGGGTGTT) at 1 to 10 uM by CD titration method in presence of 100 mM of KCl
Nucleic Acid [8] = assay: Binding affinity to telomeric Duplex DNA 5'-d(CGTTCAGAGCCGOxodGTTACGTCCTTCAT) 3'-d(CGAAGTCTGGCCAATGCAGGAAGTA) at 1 to 10 uM by CD titration method in presence of 100 mM of KCl
Nucleic Acid [9] = assay: Induction of telomeric [32P] G-quadruplex DNA 5'-d(GOxodGTTAGGGTTAGGGTTAGGGTTAGGG) assessed as adducts decomposition half life at 4 uM for 30 mins in presence of Na2IrCl6 by PAGE method
Nucleic Acid [10] = assay: Induction of telomeric [32P] G-quadruplex DNA 5'-d(AOxodGGTTAGGGTTAGGGTTAGGGTGTT) assessed as adducts decomposition half life at 4 uM for 30 mins in presence of Na2IrCl6 by PAGE method
Nucleic Acid [11] = assay: Induction of telomeric [32P] G-quadruplex DNA 5'-d(GOxodGTTAGGGTTAGGGTTAGGGTTAGGG) adduct formation at 4 uM for 30 mins in presence of Na2IrCl6 by PAGE method
Nucleic Acid [12] = assay: Induction of telomeric [32P] G-quadruplex DNA 5'-d(AOxodGGTTAGGGTTAGGGTTAGGGTGTT) adduct formation at 4 uM for 30 mins in presence of Na2IrCl6 by PAGE method
Nucleic Acid [13] = assay: Induction of telomeric [32P] G-quadruplex DNA 5'-d(AGGGTTAGOxodGGTTAGGGTTAGGGTGTT) adduct formation at 4 uM for 30 mins in presence of Na2IrCl6 by PAGE method
Nucleic Acid [14] = assay: Induction of telomeric [32P] G-quadruplex DNA 5'-d(AGGGTTAGGGTTAOxodGGGGTTAGGGTGTT) adduct formation at 4 uM for 30 mins in presence of Na2IrCl6 by PAGE method
Nucleic Acid [15] = assay: Induction of telomeric [32P] Duplex DNA 5'-d(CGTTCAGAGCCGOxodGTTACGTCCTTCAT) 3'-d(CGAAGTCTGGCCAATGCAGGAAGTA) adduct formation at 4 uM for 30 mins in presence of Na2IrCl6 by PAGE method

Row | Kd (Nucleic Acid [1]) [nM] | Tm (Nucleic Acid [2]) [°C] | Activity (Nucleic Acid [3]) | Activity (Nucleic Acid [4]) | Activity (Nucleic Acid [5]) | Activity (Nucleic Acid [6]) | Activity (Nucleic Acid [7]) | Activity (Nucleic Acid [8]) | T1/2 (Nucleic Acid [9]) [h] | T1/2 (Nucleic Acid [10]) [h] | Activity (Nucleic Acid [11]) | Activity (Nucleic Acid [12]) | Activity (Nucleic Acid [13]) | Activity (Nucleic Acid [14]) | Activity (Nucleic Acid [15]) | Structure (SMILES)
1 | 860 | 5.2 | Active | Active | Active | inactive | Active | Active | 36 | 36 | Active | Active | inactive | inactive | Active | NCC(CN)CCC(=O)NCCCN1C(=O)c2ccc3c4ccc5c6c(ccc(c7ccc(c2c37)C1=O)c64)C(=O)N(CCCNC(=O)CCC(CN)CN)C5=O
2 | – | – | – | – | – | – | – | – | – | – | Active | – | – | – | – | NCCCNCCCCNCCCN1C(=O)c2ccc3c4ccc5c6c(ccc(c7ccc(c2c37)C1=O)c64)C(=O)N(CCCNCCCCNCCCN)C5=O
